Measured values from patent US6610744B2, “Methods of treatment with compounds having RARα receptor specific or selective activity” (Allergan, Inc., priority 1995, dated 2003).

Columns and labels:
RXRΓ = target: T1, RXRΓ (Homo sapiens, UniProt P48443); experiment: Ligand binding assay, RXRΓ
T1 construct: made in house; host or cells: Baculovirus expression (insect cell extract)
T1 sequence (P48443 1-463): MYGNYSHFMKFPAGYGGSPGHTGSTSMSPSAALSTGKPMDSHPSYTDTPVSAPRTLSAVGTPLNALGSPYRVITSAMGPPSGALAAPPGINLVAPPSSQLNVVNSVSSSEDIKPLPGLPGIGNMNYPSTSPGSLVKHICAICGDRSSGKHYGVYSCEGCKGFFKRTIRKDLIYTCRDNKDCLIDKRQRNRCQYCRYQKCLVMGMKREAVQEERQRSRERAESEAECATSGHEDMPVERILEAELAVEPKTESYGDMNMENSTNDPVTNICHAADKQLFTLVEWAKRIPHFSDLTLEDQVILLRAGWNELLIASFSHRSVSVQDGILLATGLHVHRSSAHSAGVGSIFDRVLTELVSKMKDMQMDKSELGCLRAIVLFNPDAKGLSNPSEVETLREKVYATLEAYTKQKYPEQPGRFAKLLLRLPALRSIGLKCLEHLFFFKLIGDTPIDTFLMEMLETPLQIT
Experimental: (§1) All binding assays were performed in a similar fashion. All six receptor types were derived from the expressed receptor type (RARα, β, Γ and RXRα, β, Γ) expressed in Baculovirus. Stock solutions of all compounds were prepared as 10 mM ethanol solutions and serial dilutions carried out into 1:1 DMSO; ethanol. Assay buffers consisted of the following for all six receptor assays: 8% glycerol, 120 mM KCl 8 mM Tris, 5 mM CHAPS 4 mM DTT and 0.24 mM PMSF, pH-7.4@ room temperature.
(§2) All receptor binding assays were performed in the same manner. The final assay volume was 250 μl and contained from 10-40 μg of extract protein depending on receptor being assayed along with 5 nM of [^3H] all-trans retinoic acid or 10 nM [^3H] 9-cis retinoic acid and varying concentrations of competing ligand at concentrations that ranged from 0-10^−5 M. The assays were formatted for a 96 well minitube system. Incubations were carried out at 4° C. until equilibrium was achieved. Non-specific binding was defined as that binding remaining in the presence of 1000 nM of the appropriate unlabeled retinoic acid isomer. At the end of the incubation period, 50 μl of 6.25% hydroxyapitite was added in the appropriate wash buffer. The wash buffer consisted of 100 mM KCl, 10 mM Tris and either 5 mM CHAPS (RXRα, β, Γ) or 0.5% Triton X-100 (RARα, β, Γ). The mixture was vortexed and incubated for 10 minutes at 4° C., centrifuged and the supernatant removed. The hydroxyapitite was washed three more times with the appropriate wash buffer. The receptor-ligand complex was adsorbed by the hydroxyapitite. The amount of receptor-ligand complex was determined by liquid scintillation counting of hydroxyapitite pellet.
(§3) After correcting for non-specific binding, IC50 values were determined. […] The IC50 value was determined graphically from a loglogit plot of the data. The […] were determined by application of the Cheng-Prussof equation to the IC50 values, the labeled ligand concentration and the Kd of the labeled ligand.
(§4) The results of ligand binding assay are expressed in Kd numbers. (See Cheng et al. Biochemical Pharmacology Vol. 22 pp 3099-3108, expressly incorporated herein by reference.)

[1] = Guinea pig osmotic pump toxicity experiment; format: in vivo; conditions: guinea pigs, intraperitoneal osmotic pump, 14 days; for depression of weight gain relative to control: FIG. 8
Experimental: In another experiment three-week old male Hartley guinea pigs were implanted intraperitonially with osmotic pumps containing 20% DMSO/80 polyethylene glycol (vehicle) or Compound 42 at concentrations of 4.4, 13.3 or 40 mg/ml in vehicle. Based on the initial body weights and known pumping rate, approximate doses of 0, 2, 6, and 18 mg/kg/day doses of Compound 42 are estimated. Body weights and clinical observations were recorded at least every other day for 14 days post-implantation. The guinea pigs were euthanized after 14 days, and the pumps were examined for possible failure.

RXRβ = target: T2, RXRβ (Homo sapiens, UniProt P28702); experiment: Ligand binding assay, RXRβ
T2 construct: made in house; host or cells: Baculovirus expression (insect cell extract)
T2 sequence (P28702 1-533): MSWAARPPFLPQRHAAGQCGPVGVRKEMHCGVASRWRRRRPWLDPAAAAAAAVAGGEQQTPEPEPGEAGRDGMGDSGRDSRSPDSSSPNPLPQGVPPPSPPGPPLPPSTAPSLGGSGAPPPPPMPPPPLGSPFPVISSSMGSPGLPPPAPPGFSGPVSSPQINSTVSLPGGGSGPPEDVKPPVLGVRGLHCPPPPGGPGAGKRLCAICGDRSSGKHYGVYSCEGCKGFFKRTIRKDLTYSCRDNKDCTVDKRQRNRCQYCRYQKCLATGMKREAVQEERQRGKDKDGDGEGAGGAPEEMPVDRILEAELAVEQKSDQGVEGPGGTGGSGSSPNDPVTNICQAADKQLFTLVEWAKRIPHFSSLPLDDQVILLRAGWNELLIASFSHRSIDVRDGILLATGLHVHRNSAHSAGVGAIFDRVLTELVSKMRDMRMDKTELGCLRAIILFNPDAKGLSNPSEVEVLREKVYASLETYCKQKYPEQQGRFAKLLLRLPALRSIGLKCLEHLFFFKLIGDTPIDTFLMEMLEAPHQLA
Experimental: as §1, §2, §3, §4

CC(C)(C)c1cc(C(=O)Nc2ccc(C(=O)O)c(F)c2)cc(C(C)(C)C)n1 [Compound 42]
Kd (RXRΓ): > 1 µM | mucocutaneous toxicity ([1]; any dose (2, 6, 18 mg/kg/day)): no signs of mucocutaneous toxicity | depression of weight gain relative to control ([1]; high dose (18 mg/kg/day)): Significant depression of weight gain | depression of weight gain relative to control ([1]; lower and middle doses (approx. 2 and 6 mg/kg/day)): no, or only statistically insignificant depression of weight gain | Kd (RXRβ): > 1 µM
